Results as given in PubChem BioAssay (NCI).
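Dose response: 5 concentrations. Exposure: 48 h. Format: 96-well plates. Endpoint: linear interpolation; highest concentration if not reached. TGI: concentration producing complete growth inhibition.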

Experiments:
Experiment in all cases: NCI anticancer screen, dose series, 48 h
HCC-2998 colon = system: HCC-2998 colon
SK-OV-3 ovarian = system: SK-OV-3 ovarian
EKVX NSCLC = system: EKVX NSCLC
SR leukemia = system: SR leukemia
DLD-1 colon = system: DLD-1 colon
NCI-H522 lung = system: NCI-H522 lung
SF-539 CNS = system: SF-539 CNS
NCI-H226 lung = system: NCI-H226 lung
HOP-62 NSCLC = system: HOP-62 NSCLC
UO-31 renal = system: UO-31 renal
CCRF-CEM leukemia = system: CCRF-CEM leukemia
HOP-92 NSCLC = system: HOP-92 NSCLC
TK-10 renal = system: TK-10 renal
NCI-H460 lung = system: NCI-H460 lung
SN12C renal = system: SN12C renal
HCT-15 colon = system: HCT-15 colon
HT29 colon = system: HT29 colon
M14 melanoma = system: M14 melanoma
HCT-116 colon = system: HCT-116 colon
UACC-257 melanoma = system: UACC-257 melanoma
A498 renal = system: A498 renal
SK-MEL-2 melanoma = system: SK-MEL-2 melanoma
LXFL 529 NSCLC = system: LXFL 529 NSCLC
786-0 renal = system: 786-0 renal
ACHN renal = system: ACHN renal
LOX IMVI melanoma = system: LOX IMVI melanoma
A549 NSCLC = system: A549 NSCLC
SF-268 CNS = system: SF-268 CNS
M19-MEL melanoma = system: M19-MEL melanoma
MOLT-4 leukemia = system: MOLT-4 leukemia
HL-60(TB) leukemia = system: HL-60(TB) leukemia
OVCAR-8 ovarian = system: OVCAR-8 ovarian
SW-620 colon = system: SW-620 colon
SNB-75 CNS = system: SNB-75 CNS
RXF-631 renal = system: RXF-631 renal
HOP-18 NSCLC = system: HOP-18 NSCLC
KM12 colon = system: KM12 colon
MALME-3M melanoma = system: MALME-3M melanoma
OVCAR-4 ovarian = system: OVCAR-4 ovarian
NCI-H23 lung = system: NCI-H23 lung
K-562 leukemia = system: K-562 leukemia
SF-295 CNS = system: SF-295 CNS
CAKI-1 renal = system: CAKI-1 renal
SNB-19 CNS = system: SNB-19 CNS
UACC-62 melanoma = system: UACC-62 melanoma
SK-MEL-28 melanoma = system: SK-MEL-28 melanoma
KM20L2 colon = system: KM20L2 colon
U251 CNS = system: U251 CNS
RPMI-8226 leukemia = system: RPMI-8226 leukemia
RXF 393 renal = system: RXF 393 renal
OVCAR-5 ovarian = system: OVCAR-5 ovarian
SNB-78 CNS = system: SNB-78 CNS
OVCAR-3 ovarian = system: OVCAR-3 ovarian
DMS 114 small cell lung = system: DMS 114 small cell lung
COLO 205 colon = system: COLO 205 colon
IGROV1 ovarian = system: IGROV1 ovarian
DMS 273 small cell lung = system: DMS 273 small cell lung

How did the TGI (HCC-2998 colon) turn out when `CN/N=C(\C)c1c(O)cc(C)oc1=O` was run?
Its TGI is over 100 µM.

What about the TGI (SK-OV-3 ovarian) of the same molecule?
The TGI was over 100 µM.

And the TGI (EKVX NSCLC)?
Its TGI is over 100 µM.

What about the TGI (SR leukemia) of the same molecule?
The TGI was over 100 µM.

And the TGI (DLD-1 colon)?
The TGI was over 100 µM.

And the TGI (NCI-H522 lung)?
Its TGI is over 100 µM.

And the TGI (SF-539 CNS)?
The TGI was over 100 µM.

What about the TGI (NCI-H226 lung) of the same molecule?
Its TGI is over 100 µM.

What about the TGI (HOP-62 NSCLC) of the same molecule?
Its TGI is over 100 µM.

And the TGI (UO-31 renal)?
The TGI was over 100 µM.

What about the TGI (CCRF-CEM leukemia) of the same molecule?
Its TGI is over 100 µM.

What about the TGI (HOP-92 NSCLC) of the same molecule?
The TGI was over 100 µM.

What about the TGI (TK-10 renal) of the same molecule?
The TGI was over 100 µM.

What about the TGI (NCI-H460 lung) of the same molecule?
Its TGI is over 100 µM.

What about the TGI (SN12C renal) of the same molecule?
Its TGI is over 100 µM.

What about the TGI (HCT-15 colon) of the same molecule?
Its TGI is over 100 µM.

What about the TGI (HT29 colon) of the same molecule?
Its TGI is over 100 µM.

What about the TGI (M14 melanoma) of the same molecule?
Its TGI is over 100 µM.

What about the TGI (HCT-116 colon) of the same molecule?
The TGI was over 100 µM.

What about the TGI (UACC-257 melanoma) of the same molecule?
The TGI was over 100 µM.

And the TGI (A498 renal)?
The TGI was over 100 µM.

And the TGI (SK-MEL-2 melanoma)?
The TGI was over 100 µM.

And the TGI (LXFL 529 NSCLC)?
The TGI was over 100 µM.

What about the TGI (786-0 renal) of the same molecule?
Its TGI is over 100 µM.

And the TGI (ACHN renal)?
The TGI was over 100 µM.

And the TGI (LOX IMVI melanoma)?
Its TGI is over 100 µM.

What about the TGI (A549 NSCLC) of the same molecule?
Its TGI is over 100 µM.

What about the TGI (SF-268 CNS) of the same molecule?
Its TGI is over 100 µM.

And the TGI (M19-MEL melanoma)?
The TGI was over 100 µM.

What about the TGI (MOLT-4 leukemia) of the same molecule?
The TGI was over 100 µM.

And the TGI (HL-60(TB) leukemia)?
The TGI was over 100 µM.

What about the TGI (OVCAR-8 ovarian) of the same molecule?
Its TGI is over 100 µM.

What about the TGI (SW-620 colon) of the same molecule?
Its TGI is over 100 µM.

What about the TGI (SNB-75 CNS) of the same molecule?
Its TGI is over 100 µM.

What about the TGI (RXF-631 renal) of the same molecule?
Its TGI is over 100 µM.

And the TGI (HOP-18 NSCLC)?
The TGI was over 100 µM.

What about the TGI (KM12 colon) of the same molecule?
The TGI was over 100 µM.

And the TGI (MALME-3M melanoma)?
The TGI was over 100 µM.

And the TGI (OVCAR-4 ovarian)?
Its TGI is over 100 µM.

And the TGI (NCI-H23 lung)?
The TGI was over 100 µM.

And the TGI (K-562 leukemia)?
The TGI was over 100 µM.

And the TGI (SF-295 CNS)?
Its TGI is over 100 µM.

What about the TGI (CAKI-1 renal) of the same molecule?
Its TGI is over 100 µM.

And the TGI (SNB-19 CNS)?
Its TGI is over 100 µM.

And the TGI (UACC-62 melanoma)?
Its TGI is over 100 µM.

What about the TGI (SK-MEL-28 melanoma) of the same molecule?
The TGI was over 100 µM.

What about the TGI (KM20L2 colon) of the same molecule?
The TGI was over 100 µM.

And the TGI (U251 CNS)?
Its TGI is over 100 µM.

Which TGI (HCC-2998 colon) does the source give for `Cc1ccc(NC(=O)SCCC(=O)O)cc1` here?
Its TGI is over 100 µM.

What about the TGI (EKVX NSCLC) of the same molecule?
The TGI was over 100 µM.

What about the TGI (SR leukemia) of the same molecule?
Its TGI is over 100 µM.

What about the TGI (DLD-1 colon) of the same molecule?
The TGI was over 100 µM.

And the TGI (NCI-H522 lung)?
Its TGI is over 100 µM.

And the TGI (SF-539 CNS)?
The TGI was over 100 µM.

And the TGI (RPMI-8226 leukemia)?
The TGI was over 100 µM.

And the TGI (NCI-H226 lung)?
The TGI was over 100 µM.

And the TGI (HOP-62 NSCLC)?
Its TGI is over 100 µM.

What about the TGI (UO-31 renal) of the same molecule?
The TGI was over 100 µM.

What about the TGI (CCRF-CEM leukemia) of the same molecule?
The TGI was over 100 µM.

What about the TGI (TK-10 renal) of the same molecule?
The TGI was over 100 µM.

What about the TGI (NCI-H460 lung) of the same molecule?
Its TGI is over 100 µM.

And the TGI (SN12C renal)?
The TGI was over 100 µM.

And the TGI (RXF 393 renal)?
Its TGI is over 100 µM.

What about the TGI (HCT-15 colon) of the same molecule?
The TGI was over 100 µM.

And the TGI (HT29 colon)?
Its TGI is over 100 µM.

And the TGI (M14 melanoma)?
Its TGI is over 100 µM.

What about the TGI (OVCAR-5 ovarian) of the same molecule?
The TGI was over 100 µM.

And the TGI (HCT-116 colon)?
The TGI was over 100 µM.

And the TGI (SNB-78 CNS)?
Its TGI is over 100 µM.

And the TGI (UACC-257 melanoma)?
Its TGI is over 100 µM.

And the TGI (A498 renal)?
Its TGI is over 100 µM.

And the TGI (SK-MEL-2 melanoma)?
The TGI was over 100 µM.

What about the TGI (LXFL 529 NSCLC) of the same molecule?
The TGI was over 100 µM.

And the TGI (786-0 renal)?
The TGI was over 100 µM.

And the TGI (ACHN renal)?
Its TGI is over 100 µM.

And the TGI (LOX IMVI melanoma)?
The TGI was over 100 µM.

What about the TGI (A549 NSCLC) of the same molecule?
Its TGI is over 100 µM.

And the TGI (SF-268 CNS)?
Its TGI is 94.9 µM.

And the TGI (OVCAR-3 ovarian)?
The TGI was over 100 µM.

What about the TGI (MOLT-4 leukemia) of the same molecule?
The TGI was over 100 µM.

And the TGI (HL-60(TB) leukemia)?
The TGI was over 100 µM.

And the TGI (OVCAR-8 ovarian)?
Its TGI is over 100 µM.

What about the TGI (SW-620 colon) of the same molecule?
Its TGI is over 100 µM.

What about the TGI (SNB-75 CNS) of the same molecule?
The TGI was 66.7 µM.

And the TGI (RXF-631 renal)?
The TGI was over 100 µM.

And the TGI (KM12 colon)?
The TGI was over 100 µM.

And the TGI (OVCAR-4 ovarian)?
Its TGI is over 100 µM.

And the TGI (NCI-H23 lung)?
Its TGI is over 100 µM.

And the TGI (K-562 leukemia)?
The TGI was over 100 µM.

What about the TGI (DMS 114 small cell lung) of the same molecule?
The TGI was over 100 µM.

What about the TGI (SF-295 CNS) of the same molecule?
Its TGI is over 100 µM.

What about the TGI (COLO 205 colon) of the same molecule?
The TGI was over 100 µM.

And the TGI (CAKI-1 renal)?
Its TGI is over 100 µM.

What about the TGI (SNB-19 CNS) of the same molecule?
The TGI was over 100 µM.

And the TGI (UACC-62 melanoma)?
The TGI was over 100 µM.

What about the TGI (SK-MEL-28 melanoma) of the same molecule?
The TGI was over 100 µM.

What about the TGI (IGROV1 ovarian) of the same molecule?
Its TGI is over 100 µM.

And the TGI (DMS 273 small cell lung)?
Its TGI is over 100 µM.

And the TGI (KM20L2 colon)?
Its TGI is over 100 µM.

And the TGI (U251 CNS)?
The TGI was over 100 µM.
